# Where two headings read alike, the source gives them in different places.
# Experiments:
# Format in all cases: cell-based
# P12-ICHIKAWA = test: Alamar Blue cell proliferation inhibition, P12-ICHIKAWA; conditions: Homo sapiens, Alamar Blue assay, 96 h incubation, Table 3, read-out: cell proliferation inhibition, Cell line P12-ICHIKAWA
# Method: (§1) Inhibitory activity on cell proliferation of representative compounds of the invention was determined using an Alamar Blue cell viability assay as described hereafter.
# (§2) 3000 cancer cells in 100 uL of cell culture media were plated in each well of a 96-well clear bottom, black wall cell culture-pretreated plate.
# (§3) The next day compounds are serially diluted (3-fold in cell culture media) across a 96-well polypropylene mother plate from row A to row F, to yield 6 concentrations (10 uM, 3.3 uM, 1.1 uM, 370 nM, 124 nM and 41 nM) for each test compound. Rows G and H contain only DMSO.
# (§4) Once titrations are made, the media in plates with cells were disposed and 100 μL of drug dilutions are transferred to plates with cells. After a ninety six-hour incubation at 37° C., 10 uL of resazurin solution from Alamar Blue Cell Viability kit (Invitrogen, Carlsbad, CA) was added to the media and cells were incubated at 37° C. for three more hours. At the end of this incubation the production of resofurin was measured using Spectrmax M2 microplate reader (Molecular Devices, Sunnyvale, CA)
# NB-4-1 = test: Alamar Blue cell proliferation inhibition, NB-4-1; conditions: Alamar Blue assay, 96 h incubation, Table 3; read-out: cell proliferation inhibition, Cell line NB-4-1
# Method: as §1, §2, §3, §4
# SKM-1_1 = test: Alamar Blue cell proliferation inhibition, SKM-1_1; conditions: Alamar Blue assay, 96 h incubation, Table 3; read-out: cell proliferation inhibition, Cell line SKM-1_1
# Method: as §1, §2, §3, §4
# ML-2 = test: Alamar Blue cell proliferation inhibition, ML-2; conditions: Homo sapiens, Alamar Blue assay, 96 h incubation, Table 3, read-out: cell proliferation inhibition, Cell line ML-2
# Method: as §1, §2, §3, §4
# KG-1 = test: Alamar Blue cell proliferation inhibition, KG-1; conditions: Homo sapiens, Alamar Blue assay, 96 h incubation, Table 3, read-out: cell proliferation inhibition, Cell line KG-1
# Method: as §1, §2, §3, §4
# THP-1 = test: Alamar Blue cell proliferation inhibition, THP-1; conditions: Homo sapiens, Alamar Blue assay, 96 h incubation, Table 3, read-out: cell proliferation inhibition, Cell line THP-1
# Method: as §1, §2, §3, §4
# MBA-MB-231 = test: Alamar Blue cell proliferation inhibition, MBA-MB-231 (MM231); conditions: Alamar Blue assay, 96 h incubation
# Method: as §1, §2, §3, §4
# SK-BR-3 = test: Alamar Blue cell proliferation inhibition, SK-BR-3; conditions: Homo sapiens, Alamar Blue assay, 96 h incubation
# Method: as §1, §2, §3, §4
# [1] = Table 2, read-out: cell proliferation inhibition, Cell Line MBA-MB-231
# [2] = Table 2, read-out: cell proliferation inhibition, Cell Line SK-BR-3
# [3] = Table 3, read-out: cell proliferation inhibition, Cell line MM231
# [4] = Table 3, read-out: cell proliferation inhibition, Cell line SK-BR-3
Structure (SMILES),IC50 (SK-BR-3; [2]) [µM],IC50 (MBA-MB-231; [1]) [µM],also measured
CN(C)CCNc1nc2cccnc2n2c1nc1ccccc12 [Compound 5],,,IC50 (P12-ICHIKAWA): 1 to 5 µM; IC50 (NB-4-1): 1 to 5 µM; IC50 (SKM-1_1): 1 to 5 µM; IC50 (ML-2): 1 to 5 µM; IC50 (KG-1): 1 to 5 µM; IC50 (THP-1): 1 to 5 µM
C[C@@H]1CN(c2nc3cc(Cl)cnc3n3c2nc2ccccc23)C[C@H](C)N1 [Compound 21],> 10,> 10,
C[C@@H]1CN(c2nc3nccnc3n3c2nc2ccccc23)C[C@H](C)N1 [Compound 35],1 to 5,1 to 5,
CN1CCCN(c2nc3nccnc3n3c2nc2ccccc23)CC1 [Compound 36],1 to 5,1 to 5,
O=c1[nH]c2ccc(NCCN3CCCC3)nc2n2c1nc1ccccc12 [Compound 39],,,IC50 (MBA-MB-231; [3]): 1 to 5 µM; IC50 (SK-BR-3; [4]): 1 to 5 µM
"CN1CCCN(c2ccc3[nH]c(=O)c4nc5ccccc5n4c3n2)CC1 [Compound 41, 2-(4-Methyl-[1,4]diazepan-1-yl)-5H-1,5,7,11b-tetraaza-benzo[c]fluoren-6-one]",,,IC50 (SK-BR-3; [4]): < 1 µM
CN(C)CCNC(=O)c1cc2cc3ccccc3nc2n2ccnc12 [Compound 52],,,IC50 (P12-ICHIKAWA): 1 to 5 µM; IC50 (NB-4-1): 1 to 5 µM; IC50 (SKM-1_1): < 1 µM; IC50 (ML-2): 1 to 5 µM; IC50 (KG-1): 1 to 5 µM; IC50 (THP-1): 1 to 5 µM
CN1CCCN(C(=O)c2cc3cc4ccccc4nc3n3ccnc23)CC1 [Compound 55],,,IC50 (MBA-MB-231; [3]): > 10 µM; IC50 (SK-BR-3; [4]): > 10 µM
COc1ccc2nc3c(cc(C(=O)N4CCCN(C)CC4)c4nccn43)cc2c1 [Compound 56],> 10,> 10,
COc1ccc2nc3c(cc(C(=O)NCCN(C)C)c4nccn43)cc2c1 [Compound 57],1 to 5,1 to 5,
CN1CCCN(C(=O)c2cc3cc4cc(Cl)ccc4nc3n3ccnc23)CC1 [Compound 60],> 10,> 10,
CN(C)CCNC(=O)c1cc2cc3cc(Cl)ccc3nc2n2ccnc12 [Compound 61],> 10,> 10,
O=C(NCCN1CCCC1)c1cc2cc3cc(Cl)ccc3nc2n2ccnc12 [Compound 62],> 10,> 10,
C[C@@H]1CN(C(=O)c2cc3cc4cc(Cl)ccc4nc3n3ccnc23)C[C@H](C)N1 [Compound 63],> 10,> 10,

# More lines, main results first:
IC50 (SK-BR-3; [2]) [µM],Structure (SMILES),IC50 (MBA-MB-231; [1]) [µM],also measured
1 to 5,Cc1ccc2nc(NCCN3CCCC3)c3nc4ccccc4n3c2n1 [Compound 12],1 to 5,
1 to 5,Cc1ccc2nc(NCCN(C)C)c3nc4ccccc4n3c2n1 [Compound 13],1 to 5,
1 to 5,Cc1ccc2nc(N3C[C@@H](C)N[C@@H](C)C3)c3nc4ccccc4n3c2n1 [Compound 14],1 to 5,
1 to 5,Cc1ccc2nc(N3CCCN(C)CC3)c3nc4ccccc4n3c2n1 [Compound 15],1 to 5,
1 to 5,Clc1cnc2c(c1)nc(NCCN1CCCC1)c1nc3ccccc3n12 [Compound 19],1 to 5,
1 to 5,CN(C)CCNc1nc2cc(Cl)cnc2n2c1nc1ccccc12 [Compound 20],1 to 5,
1 to 5,CN1CCCN(c2nc3cc(Cl)cnc3n3c2nc2ccccc23)CC1 [Compound 22],5 to 10,
1 to 5,c1ccc2c(c1)nc1c(NCCN3CCCC3)nc3cncnc3n12 [Compound 26],1 to 5,
1 to 5,CN(C)CCNc1nc2cncnc2n2c1nc1ccccc12 [Compound 27],1 to 5,
1 to 5,C[C@@H]1CN(c2nc3cncnc3n3c2nc2ccccc23)C[C@H](C)N1 [Compound 28],1 to 5,
1 to 5,CN1CCCN(c2nc3cncnc3n3c2nc2ccccc23)CC1 [Compound 29],1 to 5,
1 to 5,CN(C)CCNc1nc2nccnc2n2c1nc1ccccc12 [Compound 34],1 to 5,

# Reference: US11866438B2, “Compositions, uses and methods for making them” (Pimera, Inc., priority 2015, dated 2024)
